Experimental data: the NIST ThermoML archive (doi:10.1016/j.tca.2016.05.013)
± gives the expanded uncertainty stated by the source.

How the values were obtained:
[1] = mn = molality of the nth substance listed, in mol/kg; conditions: 86.8 kPa, Liquid; for viscosity: Falling or rolling sphere viscometry; for speed of sound: Frequency=3 MHz, Sing-around technique in a fixed-path interferometer; for mass density: Vibrating tube method
[2] = refractive index (Na D-line) (dimensionless); mn = molality of the nth substance listed, in mol/kg; conditions: 86.8 kPa, Liquid, Standard Abbe refractometry

In the case of CCCCn1cc[n+](C)c1.O=C([O-])c1ccccc1O [1-butyl-3-methylimidazolium salicylate] + O, the viscosity ([1]; 288.15 K, m1 = 0.1012) is reported as 1.289 ± 0.035 mPa·s, the viscosity ([1]; 288.15 K, m1 = 0.1032) is reported as 1.296 ± 0.035 mPa·s and the viscosity ([1]; 288.15 K, m1 = 0.2124) is reported as 1.432 ± 0.036 mPa·s. For the same compound, the viscosity ([1]; 288.15 K, m1 = 0.2146) was 1.44 ± 0.036 mPa·s, the viscosity ([1]; 288.15 K, m1 = 0.3146) was 1.535 ± 0.036 mPa·s and the viscosity ([1]; 288.15 K, m1 = 0.3152) was 1.536 ± 0.036 mPa·s. For the same compound, the speed of sound ([1]; 288.15 K, m1 = 0.1032) was 1484.4 ± 1.2 m/s, the speed of sound ([1]; 288.15 K, m1 = 0.1055) was 1484.4 ± 1.2 m/s and the speed of sound ([1]; 288.15 K, m1 = 0.2001) was 1499.1 ± 1.2 m/s. For the same compound, the speed of sound ([1]; 288.15 K, m1 = 0.2005) was 1499.5 ± 1.2 m/s, the speed of sound ([1]; 288.15 K, m1 = 0.2965) was 1513.9 ± 1.3 m/s and the speed of sound ([1]; 288.15 K, m1 = 0.3002) was 1513.6 ± 1.3 m/s. It also gave a mass density ([1]; 288.15 K, m1 = 0.1032) of 1004.94 ± 1.2 kg/m3, a mass density ([1]; 288.15 K, m1 = 0.1055) of 1005.04 ± 1.2 kg/m3 and a mass density ([1]; 288.15 K, m1 = 0.2001) of 1010.28 ± 3.6 kg/m3. It also gave a mass density ([1]; 288.15 K, m1 = 0.2005) of 1010.45 ± 3.6 kg/m3, a mass density ([1]; 288.15 K, m1 = 0.2965) of 1015.79 ± 1.2 kg/m3 and a mass density ([1]; 288.15 K, m1 = 0.3002) of 1015.82 ± 1.2 kg/m3. For the same compound, the viscosity ([1]; 298.15 K, m1 = 0.1012) was 1.037 ± 0.035 mPa·s, the viscosity ([1]; 298.15 K, m1 = 0.1032) was 1.042 ± 0.035 mPa·s and the viscosity ([1]; 298.15 K, m1 = 0.2124) was 1.159 ± 0.035 mPa·s. The viscosity ([1]; 298.15 K, m1 = 0.2146) was 1.162 ± 0.035 mPa·s, the viscosity ([1]; 298.15 K, m1 = 0.3146) was 1.256 ± 0.035 mPa·s and the viscosity ([1]; 298.15 K, m1 = 0.3152) was 1.253 ± 0.035 mPa·s. For the same compound, the speed of sound ([1]; 298.15 K, m1 = 0.1032) was 1512 ± 1.2 m/s, the speed of sound ([1]; 298.15 K, m1 = 0.1055) was 1511.9 ± 1.2 m/s and the speed of sound ([1]; 298.15 K, m1 = 0.2001) was 1524.5 ± 1.2 m/s. It also gave a speed of sound ([1]; 298.15 K, m1 = 0.2005) of 1524.8 ± 1.2 m/s, a speed of sound ([1]; 298.15 K, m1 = 0.2965) of 1537 ± 1.3 m/s and a speed of sound ([1]; 298.15 K, m1 = 0.3002) of 1537 ± 1.3 m/s. The mass density ([1]; 298.15 K, m1 = 0.1032) was 1002.65 ± 1.3 kg/m3, the mass density ([1]; 298.15 K, m1 = 0.1055) was 1002.65 ± 1.3 kg/m3 and the mass density ([1]; 298.15 K, m1 = 0.2001) was 1007.67 ± 10 kg/m3. It also gave a mass density ([1]; 298.15 K, m1 = 0.2005) of 1007.91 ± 1.9 kg/m3, a mass density ([1]; 298.15 K, m1 = 0.2965) of 1012.99 ± 1.3 kg/m3 and a mass density ([1]; 298.15 K, m1 = 0.3002) of 1012.91 ± 1.5 kg/m3. For the same compound, the viscosity ([1]; 308.15 K, m1 = 0.1012) was 0.869 ± 0.035 mPa·s, the viscosity ([1]; 308.15 K, m1 = 0.1032) was 0.872 ± 0.035 mPa·s and the viscosity ([1]; 308.15 K, m1 = 0.2124) was 0.981 ± 0.035 mPa·s. It also gave a viscosity ([1]; 308.15 K, m1 = 0.2146) of 0.986 ± 0.035 mPa·s, a viscosity ([1]; 308.15 K, m1 = 0.3146) of 1.078 ± 0.035 mPa·s and a viscosity ([1]; 308.15 K, m1 = 0.3152) of 1.076 ± 0.035 mPa·s. For the same compound, the speed of sound ([1]; 308.15 K, m1 = 0.1032) was 1532.3 ± 1.2 m/s, the speed of sound ([1]; 308.15 K, m1 = 0.1055) was 1532.4 ± 1.2 m/s and the speed of sound ([1]; 308.15 K, m1 = 0.2001) was 1543.5 ± 1.3 m/s. The speed of sound ([1]; 308.15 K, m1 = 0.2005) was 1543.3 ± 1.3 m/s, the speed of sound ([1]; 308.15 K, m1 = 0.2965) was 1553.8 ± 1.3 m/s and the speed of sound ([1]; 308.15 K, m1 = 0.3002) was 1553.8 ± 1.3 m/s. For the same compound, the mass density ([1]; 308.15 K, m1 = 0.1032) was 999.4 ± 1.3 kg/m3, the mass density ([1]; 308.15 K, m1 = 0.1055) was 999.44 ± 1.3 kg/m3 and the mass density ([1]; 308.15 K, m1 = 0.2001) was 1004.28 ± 8 kg/m3. For the same compound, the mass density ([1]; 308.15 K, m1 = 0.2005) was 1004.44 ± 1.9 kg/m3, the mass density ([1]; 308.15 K, m1 = 0.2965) was 1009.39 ± 1.5 kg/m3 and the mass density ([1]; 308.15 K, m1 = 0.3002) was 1009.41 ± 1.5 kg/m3. The viscosity ([1]; 318.15 K, m1 = 0.1012) was 0.748 ± 0.034 mPa·s, the viscosity ([1]; 318.15 K, m1 = 0.1032) was 0.751 ± 0.034 mPa·s and the viscosity ([1]; 318.15 K, m1 = 0.2124) was 0.87 ± 0.035 mPa·s. The viscosity ([1]; 318.15 K, m1 = 0.2146) was 0.876 ± 0.035 mPa·s, the viscosity ([1]; 318.15 K, m1 = 0.3146) was 0.962 ± 0.035 mPa·s and the viscosity ([1]; 318.15 K, m1 = 0.3152) was 0.96 ± 0.035 mPa·s. The speed of sound ([1]; 318.15 K, m1 = 0.1032) was 1546.8 ± 1.2 m/s, the speed of sound ([1]; 318.15 K, m1 = 0.1055) was 1547.3 ± 1.2 m/s and the speed of sound ([1]; 318.15 K, m1 = 0.2001) was 1555.9 ± 1.3 m/s. For the same compound, the speed of sound ([1]; 318.15 K, m1 = 0.2005) was 1556 ± 1.3 m/s, the speed of sound ([1]; 318.15 K, m1 = 0.2965) was 1565 ± 1.3 m/s and the speed of sound ([1]; 318.15 K, m1 = 0.3002) was 1564.8 ± 1.3 m/s. For the same compound, the mass density ([1]; 318.15 K, m1 = 0.1032) was 995.42 ± 1.2 kg/m3, the mass density ([1]; 318.15 K, m1 = 0.1055) was 995.43 ± 1.2 kg/m3 and the mass density ([1]; 318.15 K, m1 = 0.2001) was 1000.19 ± 2 kg/m3. The mass density ([1]; 318.15 K, m1 = 0.2005) was 1000.27 ± 2 kg/m3, the mass density ([1]; 318.15 K, m1 = 0.2965) was 1005.07 ± 1.2 kg/m3 and the mass density ([1]; 318.15 K, m1 = 0.3002) was 1004.98 ± 1.2 kg/m3. For the same compound, the refractive index ([2]; 288.15 K, m1 = 0.1032) was 1.3381 ± 0.004, the refractive index ([2]; 288.15 K, m1 = 0.1055) was 1.3383 ± 0.004 and the refractive index ([2]; 288.15 K, m1 = 0.2001) was 1.3427 ± 0.004. The refractive index ([2]; 288.15 K, m1 = 0.2005) was 1.3429 ± 0.004, the refractive index ([2]; 288.15 K, m1 = 0.2965) was 1.3479 ± 0.004 and the refractive index ([2]; 288.15 K, m1 = 0.3002) was 1.3479 ± 0.004. For the same compound, the refractive index ([2]; 298.15 K, m1 = 0.1032) was 1.3376 ± 0.004, the refractive index ([2]; 298.15 K, m1 = 0.1055) was 1.3376 ± 0.004 and the refractive index ([2]; 298.15 K, m1 = 0.2001) was 1.342 ± 0.004. The refractive index ([2]; 298.15 K, m1 = 0.2005) was 1.342 ± 0.004, the refractive index ([2]; 298.15 K, m1 = 0.2965) was 1.3468 ± 0.004 and the refractive index ([2]; 298.15 K, m1 = 0.3002) was 1.3468 ± 0.004. It also gave a refractive index ([2]; 308.15 K, m1 = 0.1032) of 1.3365 ± 0.004, a refractive index ([2]; 308.15 K, m1 = 0.1055) of 1.3365 ± 0.004 and a refractive index ([2]; 308.15 K, m1 = 0.2001) of 1.3407 ± 0.004. It also gave a refractive index ([2]; 308.15 K, m1 = 0.2005) of 1.3408 ± 0.004, a refractive index ([2]; 308.15 K, m1 = 0.2965) of 1.3456 ± 0.004 and a refractive index ([2]; 308.15 K, m1 = 0.3002) of 1.3455 ± 0.004. The refractive index ([2]; 318.15 K, m1 = 0.1032) was 1.335 ± 0.004, the refractive index ([2]; 318.15 K, m1 = 0.1055) was 1.3352 ± 0.004 and the refractive index ([2]; 318.15 K, m1 = 0.2001) was 1.3393 ± 0.004. The refractive index ([2]; 318.15 K, m1 = 0.2005) was 1.3395 ± 0.004, the refractive index ([2]; 318.15 K, m1 = 0.2965) was 1.344 ± 0.004 and the refractive index ([2]; 318.15 K, m1 = 0.3002) was 1.344 ± 0.004.
